From ChEMBL document CHEMBL1143034, “The screening and characterization of 6-aminopurine-based xanthine oxidase inhibitors” (Bioorg Med Chem, 2007) come the findings set out here.

Test [1] concerns the target T1, Xanthine dehydrogenase/oxidase (Homo sapiens, UniProt P47989). Kind of test: Inhibition of human xanthine oxidase.
The target in test [2] is T1, Xanthine dehydrogenase/oxidase. Kind of test: Inhibition of human xanthine oxidase at 30 uM.

T1 sequence (P47989 whole entry): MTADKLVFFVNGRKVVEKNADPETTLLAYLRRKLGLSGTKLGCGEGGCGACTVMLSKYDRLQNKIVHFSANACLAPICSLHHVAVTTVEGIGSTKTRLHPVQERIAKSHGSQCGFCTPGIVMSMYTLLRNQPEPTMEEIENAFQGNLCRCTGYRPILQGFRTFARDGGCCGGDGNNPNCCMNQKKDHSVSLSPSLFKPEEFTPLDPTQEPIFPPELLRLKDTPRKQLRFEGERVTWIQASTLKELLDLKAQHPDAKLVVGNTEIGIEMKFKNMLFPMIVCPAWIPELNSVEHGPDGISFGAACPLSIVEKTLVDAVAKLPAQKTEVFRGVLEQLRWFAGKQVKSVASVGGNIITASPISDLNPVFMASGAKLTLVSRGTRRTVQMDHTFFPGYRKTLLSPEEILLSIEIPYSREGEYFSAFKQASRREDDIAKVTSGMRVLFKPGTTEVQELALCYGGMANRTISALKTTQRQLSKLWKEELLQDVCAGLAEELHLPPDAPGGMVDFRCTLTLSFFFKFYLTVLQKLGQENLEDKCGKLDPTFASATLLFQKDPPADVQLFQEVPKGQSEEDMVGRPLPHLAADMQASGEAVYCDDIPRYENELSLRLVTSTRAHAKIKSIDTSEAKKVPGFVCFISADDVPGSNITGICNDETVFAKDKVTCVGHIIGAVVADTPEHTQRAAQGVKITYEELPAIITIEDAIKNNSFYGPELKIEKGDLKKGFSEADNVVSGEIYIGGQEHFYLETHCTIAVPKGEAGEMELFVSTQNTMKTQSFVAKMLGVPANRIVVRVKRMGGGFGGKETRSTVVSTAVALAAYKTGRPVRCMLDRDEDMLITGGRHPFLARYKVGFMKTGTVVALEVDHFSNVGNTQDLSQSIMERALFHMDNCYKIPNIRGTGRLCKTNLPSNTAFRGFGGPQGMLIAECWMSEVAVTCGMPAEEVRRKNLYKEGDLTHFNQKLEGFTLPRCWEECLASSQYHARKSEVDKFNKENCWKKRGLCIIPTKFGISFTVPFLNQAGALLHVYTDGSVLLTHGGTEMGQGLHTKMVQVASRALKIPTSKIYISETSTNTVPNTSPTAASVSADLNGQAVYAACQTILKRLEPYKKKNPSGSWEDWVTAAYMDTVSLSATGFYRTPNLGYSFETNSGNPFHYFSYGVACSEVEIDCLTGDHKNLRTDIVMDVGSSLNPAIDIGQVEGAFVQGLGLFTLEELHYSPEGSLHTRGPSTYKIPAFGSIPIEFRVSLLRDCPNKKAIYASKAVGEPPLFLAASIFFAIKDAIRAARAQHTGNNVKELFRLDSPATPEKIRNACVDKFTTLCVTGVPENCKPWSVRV

The molecule `Cc1ccc2[nH]cnc2c1` returned an IC50 in test [1] of more than 200 µM.

Consider `O=[N+]([O-])c1ccc2[nH]cnc2c1`, for which, in test [1], the IC50 was 86.8 µM.

`Nc1ncnc2[nH]ncc12` gave an IC50 in test [1] of 30.3 µM. Besides, in test [2], the inhibition at 30 µM is 49.8%.

In test [1], `Cn1c(=O)[nH]c2nc[nH]c2c1=O` [1-METHYLXANTHINE] returned an IC50 of more than 200 µM.

Consider `Nc1nc(N)c2[nH]cnc2n1` [2,6-DIAMINOPURINE], for which, in test [1], the IC50 is more than 200 µM.

As for `Nc1ncc2[nH]cnc2n1` [2-AMINOPURINE], the IC50 in test [1] was more than 200 µM.

For the molecule `Nc1nc(Cl)c2nc[nH]c2n1` [6-CHLOROGUANINE], the IC50 in test [1] was more than 200 µM.

As for `Nc1[nH]cnc2ncnc1-2` [ADENINE], testing at 30 µM in test [2] gave an inhibition of 61.3%.

In turn, `Oc1ncnc2[nH]ncc12` [ALLOPURINOL] registered an inhibition at 30 µM in test [2] of 93.8%.

Molecule `Cc1cc2nc[nH]c2cc1C` [DIMEDAZOL] yielded an IC50 in test [1] of more than 200 µM.

In turn, `COc1nc(N)nc2nc[nH]c12` [METHYLGUANINE] came in with a 50% inhibitory concentration (IC50) in test [1] of more than 200 µM.

Regarding `Nc1nc2nc[nH]c2c(=S)[nH]1` [THIOGUANINE], 92.4 µM corresponded to half-maximal inhibition in test [1] (IC50).
